Results taken from ChEMBL document CHEMBL1157539, “Thousands of chemical starting points for antimalarial lead identification” (Nature, 2010).

test system: Plasmodium falciparum; test: GSK_TCMDC: Inhibition of Plasmodium falciparum 3D7 in whole erythrocytes, using parasite LDH activity as an index of growth.; type: functional, organism-based; conditions: Plasmodium falciparum, 3D7

SMILES	XC50
Nc1nc2c(ncn2COC(COCc2ccccc2)COCc2ccccc2)c(=O)[nH]1.Nc1nc2ncn(COC(COCc3ccccc3)COCc3ccccc3)c2c(=O)[nH]1	714 nM
CC(Cc1ccc(CNC(=O)NCc2ccc(CC(C)NCCc3cccc(Cl)c3)cc2)cc1)NCCc1cccc(Cl)c1 (stereo unspecified)	685 nM
CCOC(=O)c1c(C)noc1Nc1ccc(OC)cc1	672 nM
Cc1cc2ccc(-c3cccc(CN)c3)cc2nc1N	758 nM
Cc1ccc(F)cc1S(=O)(=O)Nc1ccc(CCN2CCC(N3CCCCC3)CC2)cc1	719 nM
CCCc1cc(C(=O)N[C@@H](Cc2ccccc2)[C@H](O)CNC(C)C)c(F)c(N2CCCC2=O)c1	943 nM
CCCCCCNC(=O)C1Cc2c([nH]c3ccccc23)C2(CCN(CCc3ccccc3)CC2)N1 (stereo unspecified)	1140 nM
CC(C)c1ccc(C=CC(=O)NC2CCC(CN3CCC(c4c[nH]c5ccccc45)CC3)CC2)cc1 (stereo unspecified)	807 nM
CCN(CC)Cc1cc(NC(=O)c2ccccc2O)ccc1Oc1ccc(Cl)cc1	827 nM
Cn1cc(-c2ccccc2C(=O)O)c(=O)c2cc(Cl)ccc21	917 nM
CC(C)N1CCC(N(Cc2ccc(-c3ccc(Cl)cc3)cc2)C(=O)Cn2c(CCc3cccc(F)c3F)nc(=O)c3ccccc32)CC1	944 nM
Cc1cccc2nc(-c3ccc(-c4cccc(CNCCNC(=O)c5ccnn5C)c4)s3)[nH]c12	216 nM
O=C(Nc1cc(F)c(F)c(-c2cccnc2)c1)N1CCc2cc(Cl)c(Cl)cc21	844 nM
CC(c1cccc(Nc2nccc(-c3c(-c4cccc(NC(=O)c5c(F)cccc5F)c4)nn4ncccc34)n2)c1)S(C)(=O)=O (stereo unspecified)	45.6 nM
N#Cc1cccc(NC(=O)Nc2cccc(-c3ccc(-c4nc5cc(C(F)(F)F)ccc5[nH]4)cc3)c2)c1	247 nM
COc1ccc(C(=O)NCc2ccccc2-c2ccc(C(C)(C)C)cc2)cc1O	99.6 nM
COc1ccc(OC)c(-c2cccc(-c3cccc(NC(=O)c4ccc([N+](=O)[O-])o4)c3)n2)c1	371 nM
CCOc1ccccc1CCNCC1CCN(CC2CCCCC2)CC1	783 nM
CO/C(=C\C=C\c1cc2cc(Cl)c(Cl)cc2[nH]1)C(=O)NCCCN1CCN(c2cccc(Cl)c2)CC1	730 nM
Cc1nc(-c2ccc(-c3ccc(C(=O)Nc4ccc(C(C)C)c(OCCN(C)C)c4)cc3)c(C)c2)no1	870 nM
O=C(N[C@H]1CCN(Cc2ccc(OC3CCN(Cc4ccccc4)CC3)cc2)C1)c1ccc(Cl)c(Cl)c1	728 nM
C=CCn1c(Sc2ccc(C#N)c([N+](=O)[O-])c2)nnc1-c1cc(OC)cc(OC)c1	436 nM
O=C(NCc1ccccc1)NC(CCCN1CCC(Oc2cccc(Cl)c2)CC1)c1ccc(Cl)c(Cl)c1 (stereo unspecified)	862 nM
COc1ccc2nc3ccccc3c(NCCN3CCN(C)CC3)c2c1	1290 nM

SMILES	XC50
CN1CCCC1CCNC(=O)[C@H](CC1CCCCC1)NC(=O)c1ccc(O)c(-c2ccc(Cl)c(Cl)c2)c1 (stereo partly specified)	736 nM
Cc1nnc(-c2cccc(Nc3ccnc4cc(-c5nccs5)ccc34)c2)o1	632 nM
Cc1nc(-c2cccc(Nc3ccnc4cc(-c5nccs5)ccc34)c2)no1	322 nM
NC(=O)c1cccc(C(=O)Nc2cccc(-c3cccc(-c4nc5ccccc5[nH]4)c3)c2)c1	548 nM
Fc1cccc(COc2ccc(Nc3ncnc4sc(C#C[C@H]5CCCN5)cc34)cc2F)c1	871 nM
COc1ccc(Nc2nccc(N3CCC(NC(=O)Nc4cccc(C(C)=O)c4)C3)n2)cc1 (stereo unspecified)	821 nM
O=C(Nc1cccc(CN2CCCN(Cc3ccc(F)cc3)CC2)c1)c1cc2ccccc2s1	794 nM
Cc1ccc(CNC(=O)[C@H](CCCN)Nc2cc(C)nc(NCC3CCCCC3)n2)cc1	1220 nM
O=C(Nc1ccc(Cl)c(Cl)c1)Nc1ccc2nccc(N3CCN(Cc4ccccc4)CC3)c2c1	158 nM
CC(C)CN(C)Cc1ccc(-c2ccc(-c3nc4ccccc4[nH]3)s2)cc1	752 nM
CCN(CC)CCN(Cc1ccc(-c2ccc(C(F)(F)F)cc2)cc1)C(=O)Cn1c(CCc2ccccc2F)nc(=O)c2ccccc21	934 nM
Cc1cccc2nc(-c3cccc(-c4ccc(C(=O)N5CCCCC5C(C)O)cc4)c3)[nH]c12 (stereo unspecified)	371 nM
COc1cc(CN=C(S)NN=C(C)c2ccccn2)cc(OC)c1OC	396 nM
CN(Cc1cccc(F)c1)C1CCN(c2cc(NC(=O)c3ccc(F)cc3)ccn2)CC1	1160 nM
CN1CCc2ccc(NC(=O)Nc3cccc(C(=O)c4ccccc4)c3)cc2C1	917 nM
COc1cc(Nc2nccc(N3CCC(NC(=O)C4COc5ccccc5O4)C3)n2)cc(OC)c1OC (stereo unspecified)	924 nM
COc1ccc(-n2ccnc2SCC(=O)Nc2cc(C(F)(F)F)ccc2Cl)c(OC)c1	35 nM
COc1ccc(C2C(C(=O)Nc3cc(C)ccc3OC)c3ccccc3C(=O)N2C)cc1 (stereo unspecified)	982 nM
Cc1cc(N2CCOCC2)nc2ccc(NC(=O)c3cccc([N+](=O)[O-])c3)cc12	890 nM
O=C(/C=C/c1ccc(Cl)c(Cl)c1)NCCCCCN1CCC(C(=O)Nc2ccc(Cl)c(Cl)c2)CC1	637 nM
Cc1cccc2nc(-c3ccc(-c4ccc(NC(=O)Nc5ccc(Cl)cc5)cc4)s3)[nH]c12	152 nM
COc1cc(Cc2cnc(N)nc2N)cc(OC(C)C)c1OC	1040 nM
O=C(Nc1ccc(C(F)(F)F)cc1)NC1CCN(c2ccnc3cc(Cl)ccc23)C1 (stereo unspecified)	139 nM
CCN1C(=O)C(=NN=C(S)N2CCCC2)c2ccccc21	1000 nM

SMILES	XC50
CS(=O)(=O)Nc1cccc(-c2cnc3[nH]cc(-c4cc(N)cc(C(=O)O)c4)c3c2)c1	1080 nM
COc1ccc2nccc(N3CCC(NCCNCc4ccc5c(n4)NC(=O)CS5)C3)c2n1 (stereo unspecified)	694 nM
c1cncc(CCNCc2cccc(-c3csc(-c4nc5ccccc5[nH]4)c3)c2)c1	704 nM
CN(C)c1ccc2c(c1)Sc1cc(N(C)C)ccc1N2C(=O)c1cccc(C(=O)O)c1	184 nM
Nc1c2c(nc3ccc(NC(=O)CCCCCc4ccccc4)cc13)CCCC2	438 nM
CCN(CC)CCN(Cc1ccc(-c2ccc(C(F)(F)F)cc2)cc1)C(=O)Cn1c(CCc2c(F)cc(F)cc2F)nc(=O)c2ccccc21	1040 nM
COc1ccc2nc(C)cc(Nc3ccc(Oc4ccc5ccccc5c4Cl)c(Cl)c3)c2c1	501 nM
CN(C)CCn1cc(C(=O)c2cc(Cl)ccc2O)cc1-c1nc2ccccc2c(=O)[nH]1	634 nM
COc1ccc(-c2ccc(NC(=O)c3ccc(C#N)cc3)cc2)cc1CN(C)CCN(C)C	663 nM
CCOC(=O)c1ccc(NC(=O)N[C@@H](Cc2ccccc2)C(=O)NC2CCN(Cc3ccc(O)cc3)C2)cc1 (stereo partly specified)	628 nM
CS(=O)(=O)c1ccc(-c2cnc(N)c(-c3cccc(O)c3)c2)cc1	695 nM
Brc1ccc(Nc2nc(NCC3CCCO3)c3ccccc3n2)cc1 (stereo unspecified)	584 nM
CN(C)CCCN(C)C(=O)c1cc2cc(-c3ccccc3)ccc2n1S(=O)(=O)c1ccccc1	462 nM
OCC(CO)(CO)NCc1ccc2c3c(cccc13)-c1ccccc1-2	1260 nM
CCOc1cc(C(=O)NC2CCN(Cc3ccccc3)CC2)ccc1-c1nc2cc(Cl)ccc2[nH]1	430 nM
O=C(/C=C/c1ccc(Cl)c(Cl)c1)NC1CCC(CN2CCC(c3c[nH]c4ccncc34)CC2)CC1 (stereo unspecified)	398 nM
COc1ccc(NC(=O)CCNc2cc(C)nc(NCc3cccc(C)c3)n2)cc1	1090 nM
COc1ccc(OC)c(Cc2cnc3nc(N)[nH]c(=O)c3c2C)c1	357 nM
COc1cc2c(cc1C(F)(F)F)N(C(=O)Nc1cccc(-c3ccc(CN(C)C)cc3)c1)CC2	710 nM
Clc1ccc(OCc2ccccc2)c(-c2nc(-c3nc4ccc(Cl)cc4[nH]3)cs2)c1	670 nM
CC(=O)Nc1nc(C)c(-c2csc(Nc3ccc(Cl)cc3)n2)s1	258 nM
Oc1cc(Nc2ccnc3cc(-c4cccc(CN5CCCCC5)c4)ccc23)c(F)cc1Cl	102 nM
N=C(Nc1ccccc1)Nc1cccc(Cc2ccc([N+](=O)[O-])cc2)n1	945 nM
Cc1cc(Nc2nc(Nc3cccc(Cl)c3)nc3ccccc23)n[nH]1	287 nM

SMILES	XC50
CCn1c(C)c(C)c2cc(C(=O)Nc3ccon3)ccc21	732 nM
CCC1CCCCN1S(=O)(=O)c1ccc(NC(=O)c2cc(C)on2)cc1 (stereo unspecified)	1240 nM
O=[N+]([O-])c1cc2c(cc1C=NNc1nc(=Nc3ccccc3)[nH]c(=Nc3ccccc3)[nH]1)OCO2	866 nM
Cc1c(Cc2ccccc2Cl)cnc2nc(N)nc(N)c12	7.42 nM
CCNC[C@@H](O)[C@H](Cc1ccccc1)NC(=O)c1cc2c3c(c1)c(CC)cn3CCS(=O)(=O)N2C	810 nM
CCNc1cc(C)nc(Nc2ccc(NC(=O)c3c(F)cccc3Cl)cc2)n1	1120 nM
CC(=O)Nc1ccc(OCCN(Cc2ccccc2C(F)(F)F)c2ccc(C#N)c(C(F)(F)F)c2)cc1	443 nM
Nc1nc(N)c2c3c(ccc2n1)CCC3	928 nM
CC(C)(Oc1c(C2CCN(CCCCNC(=O)c3ccc(-c4ccc(Cl)cc4)cc3)CC2)ccc2c1CCCC2)C(N)=O	1090 nM
COc1cc2nc(NCCc3ccccc3)nc(NCc3nccs3)c2cc1OC	532 nM
CC(=O)c1c[nH]c2ccc(/C=C/C(=O)NC3CCC(CCN4CCc5ccc(C#N)cc5CC4)CC3)cc12 (stereo unspecified)	496 nM
OCC1CCN(Cc2cccc(-c3ccc(-c4nc5cc(C(F)(F)F)ccc5[nH]4)cc3)c2)CC1	662 nM
CO/C(=C\C=C\c1cc2cc(Cl)c(Cl)cc2[nH]1)C(=O)N[C@H]1CN2CCC1CC2	1210 nM
Cc1c2ccncc2c(C)c2c1[nH]c1cc(Cc3ccccc3)c(O)cc12	148 nM
COc1ccc(C(C(=O)NC2CCN(C[C@H](O)c3ccnc4ccc(OC)cc34)CC2)N2CCc3ccccc3C2)cc1 (stereo partly specified)	697 nM
CCN(CCCN1CCCCC1)c1cc(C)nc(Nc2ccc(C(C)C)cc2)n1	543 nM
O=C(N[C@@H](CC1CCCCC1)C(=O)NC1CCCc2ccccc21)c1ccc(O)c(-c2cccc(C(F)(F)F)c2)c1 (stereo partly specified)	600 nM
Oc1ccc2nc(NCCCc3ccccc3)nc(NCCCc3ccccc3)c2c1	398 nM
CCCCC(=O)Nc1cc(=O)[nH]c2nc(-c3ccc(Cl)cc3)nn12	708 nM
Cc1cc(N2CCCC2)nc(Nc2ccc(NC(=O)Nc3ccccc3)cc2)n1	165 nM
Cc1cccc(-c2nc3[nH]c(=O)cc(NC(=O)C(C)C)n3n2)c1	421 nM
COc1ccccc1N1CCN(Cc2c(O)ccc3cc(Br)ccc23)CC1	1150 nM
CCn1c(Cc2ccccc2)nnc1Sc1ccc([N+](=O)[O-])c(C#N)c1	1010 nM
Cc1ccc2c(c1)NCC21CCN(C[C@@H](O)C2CCN(c3ccnc(Cl)c3)CC2)CC1C (stereo partly specified)	940 nM
